Assay results taken from patent US9707305B2, “Formulas for diagnosing and treating hormone-dependent cancers and cancers of the organs responsible for steroid hormone synthesis” (Commissariat à l'énergie atomique et aux énergies …, priority 2011, dated 2017).

Experiment: Biodistribution of the nano-emulsion of Example 1.1 (radioactivity and fluorescence per organ)
Type: in vivo
Protocol: In the following examples, the radioactivity was counted with the TRiCarb Counter (Ref: Packard, Liquid Scintillation Analyzers; Models 2200CA).
Fluobeam 700 (Fluoptics) is the apparatus with which the whole of the organs from the biodistribution were analyzed in fluorescence as well as the one with which the biodistribution kinetics of the nano-emulsions were established in vivo. This imaging system allows viewing of the fluorescence in spectral bands from 700 to 850 nm for a 650 nm excitation. The apparatus consists of an electric case containing the laser of class 3B, its power supply and an optical head containing the CCD camera.
The nano-emulsions of Example 1 were injected into FVB female and male mice. As a comparison, a mixture of three tracers ([3H]CHE, [14C]CO and DiD) (not formulated as a nano-emulsion) was injected in order to observe the distribution of the tracers in the absence of droplets being used as a distribution carrier.
Tables 6 to 14 provide the biodistribution results of each tracer ([3H]CHE, [14C]CO and DiD) expressed as a percentage of the dose injected per gram of tissue (or [3H]CHE and [14C]CO) or as fluorescence intensity (for DiD) depending on the organ of the mouse, 15 minutes (Table 6), 2 hours (Table 7), 4 hours (Table 8), 6 hours (Table 9), 16 hours (Table 10), 24 hours (Table 11), 72 hours (Table 12), 120 hours (Table 13) and 168 hours (Table 14), after injection into an FVB female mouse of the nano-emulsion of Example 1.1. (nano-emulsion according to the invention comprising the three tracers ([3H]CHE, [14C]CO and DiD).

[1] = 2 h after injection of nano-emulsion of Example 1.1, FVB female mouse
[2] = 4 h after injection of nano-emulsion of Example 1.1, FVB female mouse
[3] = 16 h (Table 9 head) after injection of nano-emulsion of Example 1.1, FVB female mouse
[4] = 24 h (Table 10 head) after injection of nano-emulsion of Example 1.1, FVB female mouse
[5] = 48 h (Table 11 head) after injection of nano-emulsion of Example 1.1, FVB female mouse
[6] = 72 h after injection of nano-emulsion of Example 1.1, FVB female mouse
[7] = 120 h after injection of nano-emulsion of Example 1.1, FVB female mouse

biodistribution, Lung (MEAN) [1]: 4.42 % of injected dose per gram of | biodistribution, Muscle (MEAN) [1]: 0.48 % of injected dose per gram of | biodistribution, Ovary (MEAN) [1]: 22.72 % of injected dose per gram of | biodistribution, Pancreas (MEAN) [1]: 1.68 % of injected dose per gram of | biodistribution, Salivary glands (MEAN) [1]: 1.74 % of injected dose per gram of | biodistribution, Spleen (MEAN) [1]: 2.87 % of injected dose per gram of | biodistribution, Uterus (MEAN) [1]: 2.21 % of injected dose per gram of | biodistribution, Adrenal glands (MEAN) [2]: 21.37 % of injected dose per gram of | biodistribution, Brain (MEAN) [2]: 0.23 % of injected dose per gram of | biodistribution, Fat (MEAN) [2]: 1.46 % of injected dose per gram of | biodistribution, Heart (MEAN) [2]: 3.75 % of injected dose per gram of | biodistribution, Intestine (MEAN) [2]: 1.80 % of injected dose per gram of | biodistribution, Kidney (MEAN) [2]: 2.27 % of injected dose per gram of | biodistribution, Liver (MEAN) [2]: 13.69 % of injected dose per gram of | biodistribution, Lungs (MEAN) [2]: 3.09 % of injected dose per gram of | biodistribution, Muscle (MEAN) [2]: 0.38 % of injected dose per gram of | biodistribution, Ovary (MEAN) [2]: 25.14 % of injected dose per gram of | biodistribution, Pancreas (MEAN) [2]: 1.17 % of injected dose per gram of | biodistribution, Salivary glands (MEAN) [2]: 1.47 % of injected dose per gram of | biodistribution, Spleen (MEAN) [2]: 1.97 % of injected dose per gram of | biodistribution, Uterus (MEAN) [2]: 1.39 % of injected dose per gram of | biodistribution, Adrenal glands (MEAN) [3]: 30.64 % of injected dose per gram of | biodistribution, Brain (MEAN) [3]: 0.13 % of injected dose per gram of | biodistribution, Fat (MEAN) [3]: 8.06 % of injected dose per gram of | biodistribution, Heart (MEAN) [3]: 2.00 % of injected dose per gram of | biodistribution, Intestine (MEAN) [3]: 2.53 % of injected dose per gram of | biodistribution, Kidney (MEAN) [3]: 1.75 % of injected dose per gram of | biodistribution, Liver (MEAN) [3]: 8.68 % of injected dose per gram of | biodistribution, Lungs (MEAN) [3]: 2.80 % of injected dose per gram of | biodistribution, Muscle (MEAN) [3]: 1.59 % of injected dose per gram of | biodistribution, Ovary (MEAN) [3]: 21.45 % of injected dose per gram of | biodistribution, Pancreas (MEAN) [3]: 1.19 % of injected dose per gram of | biodistribution, Salivary glands (MEAN) [3]: 2.02 % of injected dose per gram of | biodistribution, Spleen (MEAN) [3]: 1.89 % of injected dose per gram of | biodistribution, Uterus (MEAN) [3]: 2.76 % of injected dose per gram of | biodistribution, Adrenal glands (MEAN) [4]: 13.05 % of injected dose per gram of | biodistribution, Brain (MEAN) [4]: 0.11 % of injected dose per gram of | biodistribution, Fat (MEAN) [4]: 2.28 % of injected dose per gram of | biodistribution, Heart (MEAN) [4]: 1.31 % of injected dose per gram of | biodistribution, Intestine (MEAN) [4]: 1.22 % of injected dose per gram of | biodistribution, Kidney (MEAN) [4]: 1.03 % of injected dose per gram of | biodistribution, Liver (MEAN) [4]: 5.39 % of injected dose per gram of | biodistribution, Lung (MEAN) [4]: 1.30 % of injected dose per gram of | biodistribution, Muscle (MEAN) [4]: 1.01 % of injected dose per gram of | biodistribution, Ovary (MEAN) [4]: 9.58 % of injected dose per gram of | biodistribution, Pancreas (MEAN) [4]: 0.67 % of injected dose per gram of | biodistribution, Salivary glands (MEAN) [4]: 1.76 % of injected dose per gram of | biodistribution, Spleen (MEAN) [4]: 1.10 % of injected dose per gram of | biodistribution, Uterus (MEAN) [4]: 0.96 % of injected dose per gram of | biodistribution, Adrenal glands (MEAN) [5]: 10.83 % of injected dose per gram of | biodistribution, Brain (MEAN) [5]: 0.11 % of injected dose per gram of | biodistribution, Fat (MEAN) [5]: 3.46 % of injected dose per gram of | biodistribution, Heart (MEAN) [5]: 0.87 % of injected dose per gram of | biodistribution, Intestine (MEAN) [5]: 1.01 % of injected dose per gram of | biodistribution, Kidney (MEAN) [5]: 0.77 % of injected dose per gram of | biodistribution, Liver (MEAN) [5]: 1.53 % of injected dose per gram of | biodistribution, Lungs (MEAN) [5]: 1.28 % of injected dose per gram of | biodistribution, Muscle (MEAN) [5]: 0.34 % of injected dose per gram of | biodistribution, Ovary (MEAN) [5]: 6.46 % of injected dose per gram of | biodistribution, Pancreas (MEAN) [5]: 0.70 % of injected dose per gram of | biodistribution, Salivary glands (MEAN) [5]: 1.20 % of injected dose per gram of | biodistribution, Spleen (MEAN) [5]: 1.03 % of injected dose per gram of | biodistribution, Uterus (MEAN) [5]: 1.24 % of injected dose per gram of | biodistribution, Adrenal glands (MEAN) [6]: 9.36 % of injected dose per gram of | biodistribution, Brain (MEAN) [6]: 0.10 % of injected dose per gram of | biodistribution, Fat (MEAN) [6]: 5.01 % of injected dose per gram of | biodistribution, Heart (MEAN) [6]: 0.64 % of injected dose per gram of | biodistribution, Intestine (MEAN) [6]: 0.62 % of injected dose per gram of | biodistribution, Kidney (MEAN) [6]: 0.66 % of injected dose per gram of | biodistribution, Liver (MEAN) [6]: 0.75 % of injected dose per gram of | biodistribution, Lungs (MEAN) [6]: 0.88 % of injected dose per gram of | biodistribution, Muscle (MEAN) [6]: 0.28 % of injected dose per gram of | biodistribution, Ovary (MEAN) [6]: 3.04 % of injected dose per gram of | biodistribution, Pancreas (MEAN) [6]: 0.50 % of injected dose per gram of | biodistribution, Salivary glands (MEAN) [6]: 1.16 % of injected dose per gram of | biodistribution, Spleen (MEAN) [6]: 0.75 % of injected dose per gram of | biodistribution, Uterus (MEAN) [6]: 1.00 % of injected dose per gram of | biodistribution, Fat (MEAN) [7]: 2.42 % of injected dose per gram of | biodistribution, Kidney (MEAN) [7]: 0.40 % of injected dose per gram of
SMILES: CCCCCCCC/C=C\CCCCCCC[14C](=O)O[C@H]1CC[C@@]2(C)C(=CC[C@H]3[C@@H]4CC[C@H]([C@H](C)CCCC(C)C)[C@@]4(C)CC[C@@H]32)C1 [[14C]CO, cholesteryl oleate]
